Measurements as given in patent US9464084B2, “P2X7 modulators” (Janssen Pharmaceutica NV, priority 2013, dated 2016).

Assays:
P2X7 = P2X7 (Homo sapiens (Human), UniProt Q99572); assay: P2X7 antagonism in human PBMCs (LPS + Bz-ATP induced IL-1β release, ELISA); format: cell-based; conditions: LPS 30 ng/ml, Bz-ATP 0.5 mM; for PBMC 10 μM (% control): compound 10 μM; for PBMC 1 μM (% control): compound 1 μM;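 as to all read-outs here: PBMCs from donor human blood, with a further 1.5 h incubation of the cells in the assay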
Sequence of P2X7 (Q99572 whole entry): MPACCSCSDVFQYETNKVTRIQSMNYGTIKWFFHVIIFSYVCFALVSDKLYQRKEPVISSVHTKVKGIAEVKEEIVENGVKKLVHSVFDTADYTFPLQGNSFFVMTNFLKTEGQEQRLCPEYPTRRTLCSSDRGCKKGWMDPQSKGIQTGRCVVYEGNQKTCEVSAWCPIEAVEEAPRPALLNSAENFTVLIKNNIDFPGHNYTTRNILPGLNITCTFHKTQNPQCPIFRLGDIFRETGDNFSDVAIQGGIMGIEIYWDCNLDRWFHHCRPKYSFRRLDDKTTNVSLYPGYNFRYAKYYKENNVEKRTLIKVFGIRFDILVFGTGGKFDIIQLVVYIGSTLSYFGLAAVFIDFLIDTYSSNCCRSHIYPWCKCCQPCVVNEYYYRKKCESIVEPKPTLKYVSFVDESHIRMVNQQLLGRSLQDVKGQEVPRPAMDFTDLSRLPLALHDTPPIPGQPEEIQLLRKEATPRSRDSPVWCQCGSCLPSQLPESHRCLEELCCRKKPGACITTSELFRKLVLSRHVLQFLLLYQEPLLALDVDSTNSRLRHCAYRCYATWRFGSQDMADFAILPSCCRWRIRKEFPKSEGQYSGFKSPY

rat P2X7 = rat P2X7 (Rattus norvegicus (Rat), UniProt Q64663); assay: Ca2+ flux (FLIPR) in 1321N1 cells expressing recombinant rat P2X7 channel; format: cell-based; conditions: 250 μM BzATP;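 also: Calcium-4 dye fluorescence change read 180 s after agonist addition, following 30 min cell preincubation with test compound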
Sequence of rat P2X7 (Q64663 whole entry): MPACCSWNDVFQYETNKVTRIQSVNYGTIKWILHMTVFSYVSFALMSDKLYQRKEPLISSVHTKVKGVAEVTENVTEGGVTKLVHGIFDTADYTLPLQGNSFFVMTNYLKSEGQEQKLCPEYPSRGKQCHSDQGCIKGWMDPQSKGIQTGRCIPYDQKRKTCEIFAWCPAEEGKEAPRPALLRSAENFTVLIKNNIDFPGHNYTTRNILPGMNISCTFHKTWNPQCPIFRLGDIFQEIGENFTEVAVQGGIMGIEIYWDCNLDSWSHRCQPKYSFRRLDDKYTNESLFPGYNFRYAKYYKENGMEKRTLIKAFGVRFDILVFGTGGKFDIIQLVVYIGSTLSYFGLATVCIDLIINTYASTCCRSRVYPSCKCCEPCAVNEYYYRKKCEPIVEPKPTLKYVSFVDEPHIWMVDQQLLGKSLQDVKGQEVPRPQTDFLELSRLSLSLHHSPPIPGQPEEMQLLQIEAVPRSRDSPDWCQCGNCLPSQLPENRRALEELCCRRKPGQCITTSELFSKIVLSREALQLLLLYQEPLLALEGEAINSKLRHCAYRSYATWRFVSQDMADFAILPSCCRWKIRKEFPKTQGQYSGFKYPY
Experimental: Cells were seeded at a density of 25000 cells/well (96-well clear bottom black walled plates) in 100 μl volume/well. On the day of the experiment, cell plates were washed with assay buffer, containing (in mM): 130 NaCl, 2 KCl, 1 CaCl2, 1 MgCl2, 10 HEPES, 5 glucose; pH 7.40 and 300 mOs. After the wash, cells were loaded with the Calcium-4 dye (Molecular Device) and incubated in the dark for 60 minutes. Test compounds were prepared at 250× the test concentration in neat DMSO. Intermediate 96-well compound plates were prepared by transferring 1.2 μL of the compound into 300 μL of assay buffer. A further 3× dilution occurred when transferring 50 μL/well of the compound plate to 100 μL/well in the cell plate. Cells were incubated with test compounds and dye for 30 minutes. […] The fluorescence change was measured 180 seconds after adding the agonist.

Row | PBMC 10 μM (% control) (P2X7) | IC50 (rat P2X7) [µM] | PBMC 1 μM (% control) (P2X7) | Compound
1 | 14.4 | 0.0108 |  | C[C@@H]1Cc2c(nnn2-c2cc(F)ccn2)CN1C(=O)c1cccc(Cl)c1Cl (single isomer, unassigned) [Example 195, (6R*)-5-[(2,3-Dichlorophenyl)carbonyl]-1-(4-fluoropyridin-2-yl)-6-methyl-4,5,6,7-tetrahydro-1H-[1,2,3]triazolo[4,5-c]pyridine]
2 | −3.1 | 2.62 |  | C[C@H]1Cc2c(nnn2-c2cc(F)ccn2)CN1C(=O)c1cccc(Cl)c1Cl (single isomer, unassigned) [Example 196, (6S*)-5-[(2,3-Dichlorophenyl)carbonyl]-1-(4-fluoropyridin-2-yl)-6-methyl-4,5,6,7-tetrahydro-1H-[1,2,3]triazolo[4,5-c]pyridine]
3 | 7.5 | > 10 |  | C[C@H]1Cc2c(nnn2-c2ncc(F)cn2)CN1C(=O)c1cc(C(F)(F)F)ccc1F (single isomer, unassigned) [Example 232, (S*)-(2-fluoro-5-(trifluoromethyl)phenyl)(1-(5-fluoropyrimidin-2-yl)-6-methyl-6,7-dihydro-1H-[1,2,3]triazolo[4,5-c]pyridin-5(4H)-yl)methanone]
4 | −5.5 | 0.211 |  | Cc1ccc(-n2nnc3c2CCN(C(=O)c2cccc(C(F)(F)F)c2Cl)[C@@H]3C)nc1 (single isomer, unassigned) [Example 255, (R*)-(2-chloro-3-(trifluoromethyl)phenyl)(4-methyl-1-(5-methylpyridin-2-yl)-6,7-dihydro-1H-[1,2,3]triazolo[4,5-c]pyridin-5(4H)-yl)methanone]
5 | −8.1 | 0.0028 |  | CCc1ccnc(-n2nnc3c2CCN(C(=O)c2cccc(C(F)(F)F)c2Cl)[C@@H]3C)n1 (single isomer, unassigned) [Example 294, (R*)-(2-chloro-3-(trifluoromethyl)phenyl)(1-(4-ethylpyrimidin-2-yl)-4-methyl-6,7-dihydro-1H-[1,2,3]triazolo[4,5-c]pyridin-5(4H)-yl)methanone]
6 | −9.6 | 2.21 |  | CCOc1cccnc1-n1nnc2c1CCN(C(=O)c1cccc(C(F)(F)F)c1Cl)[C@@H]2C (single isomer, unassigned) [Example 316, (R*)-(2-chloro-3-(trifluoromethyl)phenyl)(1-(3-ethoxypyridin-2-yl)-4-methyl-6,7-dihydro-1H-[1,2,3]triazolo[4,5-c]pyridin-5(4H)-yl)methanone]
7 | 4.8 | > 10 |  | CCOc1cccnc1-n1nnc2c1CCN(C(=O)c1cccc(C(F)(F)F)c1Cl)[C@H]2C (single isomer, unassigned) [Example 317, (S*)-(2-chloro-3-(trifluoromethyl)phenyl)(1-(3-ethoxypyridin-2-yl)-4-methyl-6,7-dihydro-1H-[1,2,3]triazolo[4,5-c]pyridin-5(4H)-yl)methanone]
8 |  | 1.09 | 12.6 | O=C(c1cccc(C(F)(F)F)c1Cl)N1CCc2c(nnn2-c2ccccn2)C1 [Example 63, 5-{[2-Chloro-3-(trifluoromethyl)phenyl]carbonyl}-1-pyridin-2-yl-4,5,6,7-tetrahydro-1H-[1,2,3]triazolo[4,5-c]pyridine]
9 | 8.5 | 0.187 |  | CC1c2nnn(-c3ncccc3F)c2CCN1C(=O)c1cccc(C(F)(F)F)c1Cl (stereo not shown) [Example 84, 5-{[2-Chloro-3-(trifluoromethyl)phenyl]carbonyl}-1-(3-fluoropyridin-2-yl)-4-methyl-4,5,6,7-tetrahydro-1H-[1,2,3]triazolo[4,5-c]pyridine]
10 | −3.8 | 0.0556 |  | CC1Cc2c(nnn2-c2ccccn2)CN1C(=O)c1cccc(Cl)c1Cl (stereo not shown) [Example 120, 5-[(2,3-Dichlorophenyl)carbonyl]-6-methyl-1-pyridin-2-yl-4,5,6,7-tetrahydro-1H-[1,2,3]triazolo[4,5-c]pyridine]
11 | 5.3 | 0.133 |  | COc1ccnc(-n2nnc3c2CCN(C(=O)c2cccc(C(F)(F)F)c2Cl)C3)c1 [Example 136, (2-Chloro-3-(trifluoromethyl)phenyl)(1-(4-methoxypyridin-2-yl)-6,7-dihydro-1H-[1,2,3]triazolo[4,5-c]pyridin-5(4H)-yl)methanone]
12 | 8.8 | 0.0102 |  | CC1Cc2c(nnn2-c2cc(F)ccn2)CN1C(=O)c1cccc(Cl)c1Cl (stereo not shown) [Example 173, 5-[(2,3-Dichlorophenyl)carbonyl]-1-(4-fluoropyridin-2-yl)-6-methyl-4,5,6,7-tetrahydro-1H-[1,2,3]triazolo[4,5-c]pyridine]
13 | −4.3 | > 10 |  | Cc1cc(C)nc(-n2nnc3c2CCN(C(=O)c2cccc(Cl)c2Cl)C3C)n1 (stereo not shown) [Example 179, (2,3-dichlorophenyl)(1-(4,6-dimethylpyrimidin-2-yl)-4-methyl-6,7-dihydro-1H-[1,2,3]triazolo[4,5-c]pyridin-5(4H)-yl)methanone]
14 | 0.9 | 4.26 |  | CCc1cccnc1-n1nnc2c1CCN(C(=O)c1cccc(C(F)(F)F)c1Cl)C2C (stereo not shown) [Example 254, (2-Chloro-3-(trifluoromethyl)phenyl)(1-(3-ethylpyridin-2-yl)-4-methyl-6,7-dihydro-1H-[1,2,3]triazolo[4,5-c]pyridin-5(4H)-yl)methanone]

The next lines start with the compound.

Row | Compound | PBMC 10 μM (% control) (P2X7) | IC50 (rat P2X7) [µM] | PBMC 1 μM (% control) (P2X7)
15 | C[C@@H]1c2n[nH]c(-c3ncc(F)cn3)c2CCN1C(=O)c1cccc(C(F)(F)F)c1Cl (single isomer, unassigned) [Example 223, (R*)-(2-chloro-3-(trifluoromethyl)phenyl)(3-(5-fluoropyrimidin-2-yl)-7-methyl-4,5-dihydro-2H-pyrazolo[3,4-c]pyridin-6(7H)-yl)methanone] | 1.8 | 0.564 | 
16 | Cc1nc(-n2nnc3c2CCN(C(=O)c2cccc(C(F)(F)F)c2Cl)[C@@H]3C)ncc1F (single isomer, unassigned) [Example 305, (R*)-(2-chloro-3-(trifluoromethyl)phenyl)(1-(5-fluoro-4-methylpyrimidin-2-yl)-4-methyl-6,7-dihydro-1H-[1,2,3]triazolo[4,5-c]pyridin-5(4H)-yl)methanone] | 0.9 | 0.0197 | 
17 | CC1c2ncn(-c3cnccn3)c2CCN1C(=O)c1cccc(C(F)(F)F)c1F (stereo not shown) [Example 14, (2-Fluoro-3-(trifluoromethyl)phenyl)(4-methyl-1-(pyrazin-2-yl)-6,7-dihydro-1H-imidazo[4,5-c]pyridin-5(4H)-yl)methanone] |  | 0.141 | 12.8
18 | CC1c2ncn(-c3ncccn3)c2CCN1C(=O)c1cccc(C(F)(F)F)c1Cl (stereo not shown) [Example 23, (2-Chloro-3-(trifluoromethyl)phenyl)(4-methyl-1-(pyrimidin-2-yl)-6,7-dihydro-1H-imidazo[4,5-c]pyridin-5(4H)-yl)methanone] | 6.4 | 0.0906 | 
19 | CCOC(=O)C1c2ncn(-c3ccccc3)c2CCN1C(=O)c1cccc(Cl)c1Cl (stereo not shown) [Example 27, Ethyl 5-(2,3-dichlorobenzoyl)-1-phenyl-4,5,6,7-tetrahydro-1H-imidazo[4,5-c]pyridine-4-carboxylate] |  | 1.89 | 39.2
20 | O=C(c1cccc(C(F)(F)F)c1Cl)N1CCc2c(ncn2-c2ccccn2)C1CF (stereo not shown) [Example 32, (2-Chloro-3-(trifluoromethyl)phenyl)(4-(fluoromethyl)-1-(pyridin-2-yl)-6,7-dihydro-1H-imidazo[4,5-c]pyridin-5(4H)-yl)methanone] | 1.9 | 0.0655 | 
21 | CC1(C)c2ncn(-c3ccccc3)c2CCN1C(=O)c1cccc(C(F)(F)F)c1Cl [Example 53, 5-{[2-Chloro-3-(trifluoromethyl)phenyl]carbonyl}-4,4-dimethyl-1-phenyl-4,5,6,7-tetrahydro-1H-imidazo[4,5-c]pyridine] |  | 4.95 | 99.0
22 | O=C(c1cccc(C(F)(F)F)c1Cl)N1C=Cc2c(nnn2-c2cnccn2)C1c1ccccc1 (stereo not shown) [Example 76, 5-{[2-Chloro-3-(trifluoromethyl)phenyl]carbonyl}-4-phenyl-1-pyrazin-2-yl-4,5-dihydro-1H-[1,2,3]triazolo[4,5-c]pyridine] |  | 0.0324 | 1.6
23 | O=C(c1cccc(Cl)c1Cl)N1CCc2c(-c3ccncc3)n[nH]c2C1 [Example 115, 6-[(2,3-Dichlorophenyl)carbonyl]-3-pyridin-4-yl-4,5,6,7-tetrahydro-2H-pyrazolo[3,4-c]pyridine] | −3.3 | > 10 | 
24 | Cc1nc(-n2nnc3c2CCN(C(=O)c2cccc(C(F)(F)F)c2Cl)C3C)ncc1F (stereo not shown) [Example 230, (2-chloro-3-(trifluoromethyl)phenyl)(1-(5-fluoro-4-methylpyrimidin-2-yl)-4-methyl-6,7-dihydro-1H-[1,2,3]triazolo[4,5-c]pyridin-5(4H)-yl)methanone] | 2.9 | 0.0895 | 
25 | CC1CN(C(=O)c2cccc(C(F)(F)F)c2Cl)C(C)c2nnn(-c3ccccc3)c21 (stereo not shown) [Example 241, (2-Chloro-3-(trifluoromethyl)phenyl)(4,7-dimethyl-1-phenyl-6,7-dihydro-1H-[1,2,3]triazolo[4,5-c]pyridin-5(4H)-yl)methanone] | 6.5 | > 10 | 
26 | Cc1cc(C)nc(-n2nnc3c2CCN(C(=O)c2cccc(C(F)(F)F)c2Cl)C3C)n1 (stereo not shown) [Example 253, (2-Chloro-3-(trifluoromethyl)phenyl)(1-(4,6-dimethylpyrimidin-2-yl)-4-methyl-6,7-dihydro-1H-[1,2,3]triazolo[4,5-c]pyridin-5(4H)-yl)methanone] | −2.6 | 12.7 | 
